Laboratory results from US12264175B2, “Compositions and methods for capping RNAS” (Verve Therapeutics, Inc., priority 2020, dated 2025).

System: primary human liver hepatocytes (hPH)
Assay: ABE protein levels by ELISA after mRNA transfection of primary human hepatocytes
Assay type: cell-based
Details: ABE mRNA transfected to hPH cells, FIG. 6
Description: Primary human liver hepatocytes (hPH), primary cynomolgus liver hepatocytes (cPH), or primary mouse liver hepatocytes (mPH) are cultured per the manufacturer's protocol. In brief, the cells are thawed and resuspended in hepatocyte thawing medium followed by centrifugation at 100 g for 10 min at 4° C. The supernatant is discarded, and the pelleted cells resuspended in hepatocyte plating medium. Each vial contains ˜5 million cells that are used for plating one 24-well plate. Plated cells are allowed to settle and adhere for 4-6 h in a tissue culture incubator at 37° C. under 5% CO2 atmosphere. After incubation, cells are checked for monolayer formation. The incubating media is then replaced with fresh hepatocyte maintenance media The cells thus are ready for transfection using a transfection agent such as MessengerMAX. Solution A: desired amount of single guide RNA (sgRNA) is mixed with 1:1 wt ratio of mRNA in OptiMEM. Solution B: MessengerMAX in OptiMEM. After mixing solutions A and B, the mixture is incubated at room temperature for 20 minutes, and then the incubated solution is added dropwise to each well of cells. The cells are then allowed to remain at 37° C. for 3 days. […] For example, mRNA with 5′ end region motifs, 1007a and 1107a, were transfected to hPH cells as described above, the cells were lysed, and ABE protein levels were measured by ELISA. […]

COC1C(OP([O-])(=S)OCC2OC(n3cnc4c(=O)[nH]c(N)nc43)C(O)C2O)C(COP(=O)(O)OP(=O)(O)OP(=O)(O)OCC2OC(n3c[n+](C)c4c(=O)[nH]c(N)nc43)C(O)C2O)OC1n1cnc2c(N)ncnc21 (stereo not shown) [1007a, m^7G(ppp)Am(ps)G]
ABE protein levels as compared to mRNA with 5′ end region motif 1002a: similar
